One test has as its target Histamine H3 receptor (Homo sapiens, UniProt Q9Y5N1).
Test [1] addresses T1, Mu-type opioid receptor (Homo sapiens, UniProt P35372).
The target of test [2] is Voltage-dependent L-type calcium channel subunit alpha-1C (Rattus norvegicus, UniProt P22002). It is filed as functional.
Test [3] deals with Beta-2 adrenergic receptor (Homo sapiens, UniProt P07550).
In test [4] the target is Sodium-dependent noradrenaline transporter (Homo sapiens, UniProt P23975).
The target of test [5] is T1, Mu-type opioid receptor. Description: biochemical. It is filed as functional.
Another test has as its target T2, Progesterone receptor (Homo sapiens, UniProt P06401).
T2 sequence (P06401 whole entry): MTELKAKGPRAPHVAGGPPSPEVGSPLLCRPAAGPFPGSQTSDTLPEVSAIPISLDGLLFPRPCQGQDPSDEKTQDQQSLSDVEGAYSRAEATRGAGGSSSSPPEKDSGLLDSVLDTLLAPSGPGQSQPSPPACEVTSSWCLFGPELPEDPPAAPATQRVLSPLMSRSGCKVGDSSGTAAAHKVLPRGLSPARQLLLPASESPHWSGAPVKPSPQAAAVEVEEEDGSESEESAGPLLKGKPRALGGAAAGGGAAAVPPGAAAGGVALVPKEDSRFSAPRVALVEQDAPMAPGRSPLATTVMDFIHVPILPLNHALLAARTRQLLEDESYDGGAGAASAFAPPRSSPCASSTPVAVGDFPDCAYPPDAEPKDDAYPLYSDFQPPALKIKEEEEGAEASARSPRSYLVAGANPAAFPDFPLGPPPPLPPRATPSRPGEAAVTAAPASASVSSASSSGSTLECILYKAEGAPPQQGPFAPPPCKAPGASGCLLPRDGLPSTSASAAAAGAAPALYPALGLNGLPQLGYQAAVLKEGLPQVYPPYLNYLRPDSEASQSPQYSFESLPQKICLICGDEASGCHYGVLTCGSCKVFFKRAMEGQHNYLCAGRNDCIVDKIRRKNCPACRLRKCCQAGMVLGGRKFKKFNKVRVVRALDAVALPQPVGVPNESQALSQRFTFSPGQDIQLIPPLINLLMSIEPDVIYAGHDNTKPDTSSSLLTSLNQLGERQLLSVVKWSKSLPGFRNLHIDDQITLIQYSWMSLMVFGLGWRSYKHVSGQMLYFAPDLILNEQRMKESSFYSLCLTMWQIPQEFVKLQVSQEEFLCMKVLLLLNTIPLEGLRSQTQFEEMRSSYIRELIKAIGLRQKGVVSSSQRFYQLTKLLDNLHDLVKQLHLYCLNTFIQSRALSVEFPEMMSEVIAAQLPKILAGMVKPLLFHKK
It is filed as functional.

For test [6], the target named is T3, Muscarinic acetylcholine receptor M2 (Homo sapiens, UniProt P08172).
T3 sequence (P08172 whole entry): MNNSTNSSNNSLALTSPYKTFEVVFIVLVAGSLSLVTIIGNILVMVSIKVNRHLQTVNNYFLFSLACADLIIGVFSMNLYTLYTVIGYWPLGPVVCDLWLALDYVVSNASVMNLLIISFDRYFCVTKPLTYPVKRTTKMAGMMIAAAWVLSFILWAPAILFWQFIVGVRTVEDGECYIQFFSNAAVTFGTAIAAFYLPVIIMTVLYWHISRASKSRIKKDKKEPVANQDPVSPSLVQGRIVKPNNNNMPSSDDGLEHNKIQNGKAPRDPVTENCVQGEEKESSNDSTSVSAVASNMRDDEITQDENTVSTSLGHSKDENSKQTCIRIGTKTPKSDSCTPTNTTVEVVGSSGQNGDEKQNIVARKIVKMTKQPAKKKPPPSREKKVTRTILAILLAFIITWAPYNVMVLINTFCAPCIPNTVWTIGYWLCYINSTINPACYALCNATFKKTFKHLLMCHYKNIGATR
Type of test: functional, cell-based.

The target of test [7] is Muscarinic acetylcholine receptor M3 (Homo sapiens, UniProt P20309).
The target of a further test is Cannabinoid receptor 1 (Homo sapiens, UniProt P21554). Type of test: functional, cell-based.
The target in test [8] is T4, Alpha-2B adrenergic receptor (Homo sapiens, UniProt P18089).
T4 sequence (P18089 whole entry): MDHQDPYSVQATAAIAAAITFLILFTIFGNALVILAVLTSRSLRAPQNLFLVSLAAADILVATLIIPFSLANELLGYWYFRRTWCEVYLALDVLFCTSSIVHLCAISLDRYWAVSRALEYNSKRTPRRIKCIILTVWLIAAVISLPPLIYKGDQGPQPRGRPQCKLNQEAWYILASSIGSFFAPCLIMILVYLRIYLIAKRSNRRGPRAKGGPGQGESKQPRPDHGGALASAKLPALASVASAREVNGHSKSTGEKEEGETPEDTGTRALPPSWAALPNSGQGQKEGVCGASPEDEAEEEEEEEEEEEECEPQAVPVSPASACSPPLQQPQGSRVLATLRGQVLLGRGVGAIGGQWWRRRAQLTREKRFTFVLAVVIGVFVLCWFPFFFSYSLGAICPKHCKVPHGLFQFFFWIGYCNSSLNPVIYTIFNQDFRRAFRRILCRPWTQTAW

Test [9] has as its target T5, Alpha-1A adrenergic receptor (Homo sapiens, UniProt P35348).
T5 sequence (P35348 whole entry): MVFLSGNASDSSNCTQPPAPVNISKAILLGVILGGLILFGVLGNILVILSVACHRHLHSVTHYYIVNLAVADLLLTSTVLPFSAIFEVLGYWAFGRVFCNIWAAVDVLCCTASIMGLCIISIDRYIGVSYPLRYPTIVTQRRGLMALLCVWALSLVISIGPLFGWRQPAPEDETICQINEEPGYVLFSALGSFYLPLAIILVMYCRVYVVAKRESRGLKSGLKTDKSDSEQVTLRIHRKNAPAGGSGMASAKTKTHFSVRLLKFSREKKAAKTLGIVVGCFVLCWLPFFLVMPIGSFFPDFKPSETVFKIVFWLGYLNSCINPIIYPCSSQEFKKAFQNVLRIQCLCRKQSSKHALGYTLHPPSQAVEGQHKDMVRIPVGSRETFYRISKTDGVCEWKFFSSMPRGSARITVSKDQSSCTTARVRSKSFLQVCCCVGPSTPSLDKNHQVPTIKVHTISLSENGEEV
Type of test: functional, cell-based.

Test [10] has as its target T5, Alpha-1A adrenergic receptor. It is filed as functional, cell-based. The source holds these as a separate data set.
The target in test [11] is 5-hydroxytryptamine receptor 2A (Homo sapiens, UniProt P28223). Type of test: functional, cell-based.

A value given as a limit tells only on which side of the number the result lay.

Sodium-dependent noradrenaline transporter, sequence (P23975 whole entry): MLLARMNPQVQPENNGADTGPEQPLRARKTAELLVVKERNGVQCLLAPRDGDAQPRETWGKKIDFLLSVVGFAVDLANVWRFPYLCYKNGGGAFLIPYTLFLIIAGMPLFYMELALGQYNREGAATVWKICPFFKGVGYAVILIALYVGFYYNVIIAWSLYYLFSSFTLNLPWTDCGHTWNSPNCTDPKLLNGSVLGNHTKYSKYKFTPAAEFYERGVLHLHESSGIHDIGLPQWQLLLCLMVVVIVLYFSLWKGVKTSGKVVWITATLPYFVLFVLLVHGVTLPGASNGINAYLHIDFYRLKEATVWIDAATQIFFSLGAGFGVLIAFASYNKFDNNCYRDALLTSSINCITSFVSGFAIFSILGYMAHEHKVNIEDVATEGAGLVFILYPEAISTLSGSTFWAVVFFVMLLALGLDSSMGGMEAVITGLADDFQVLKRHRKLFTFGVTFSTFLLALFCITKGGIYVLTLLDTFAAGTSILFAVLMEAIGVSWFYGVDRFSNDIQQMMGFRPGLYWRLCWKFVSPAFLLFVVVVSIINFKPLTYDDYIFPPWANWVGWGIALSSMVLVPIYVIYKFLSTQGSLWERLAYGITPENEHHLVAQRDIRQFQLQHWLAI
5-hydroxytryptamine receptor 2A, sequence (P28223 whole entry): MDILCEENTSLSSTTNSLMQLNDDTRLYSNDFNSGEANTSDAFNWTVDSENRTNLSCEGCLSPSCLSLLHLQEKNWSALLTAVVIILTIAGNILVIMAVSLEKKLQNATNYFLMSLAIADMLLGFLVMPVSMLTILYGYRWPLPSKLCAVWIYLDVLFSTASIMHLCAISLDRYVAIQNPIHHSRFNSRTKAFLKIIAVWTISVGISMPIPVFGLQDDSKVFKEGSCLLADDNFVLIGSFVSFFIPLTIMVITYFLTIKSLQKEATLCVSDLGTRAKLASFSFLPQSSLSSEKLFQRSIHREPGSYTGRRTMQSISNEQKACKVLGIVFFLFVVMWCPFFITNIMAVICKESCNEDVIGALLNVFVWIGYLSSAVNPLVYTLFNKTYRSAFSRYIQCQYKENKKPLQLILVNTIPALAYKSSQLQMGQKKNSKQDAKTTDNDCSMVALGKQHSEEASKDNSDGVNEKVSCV
Muscarinic acetylcholine receptor M3, sequence (P20309 whole entry): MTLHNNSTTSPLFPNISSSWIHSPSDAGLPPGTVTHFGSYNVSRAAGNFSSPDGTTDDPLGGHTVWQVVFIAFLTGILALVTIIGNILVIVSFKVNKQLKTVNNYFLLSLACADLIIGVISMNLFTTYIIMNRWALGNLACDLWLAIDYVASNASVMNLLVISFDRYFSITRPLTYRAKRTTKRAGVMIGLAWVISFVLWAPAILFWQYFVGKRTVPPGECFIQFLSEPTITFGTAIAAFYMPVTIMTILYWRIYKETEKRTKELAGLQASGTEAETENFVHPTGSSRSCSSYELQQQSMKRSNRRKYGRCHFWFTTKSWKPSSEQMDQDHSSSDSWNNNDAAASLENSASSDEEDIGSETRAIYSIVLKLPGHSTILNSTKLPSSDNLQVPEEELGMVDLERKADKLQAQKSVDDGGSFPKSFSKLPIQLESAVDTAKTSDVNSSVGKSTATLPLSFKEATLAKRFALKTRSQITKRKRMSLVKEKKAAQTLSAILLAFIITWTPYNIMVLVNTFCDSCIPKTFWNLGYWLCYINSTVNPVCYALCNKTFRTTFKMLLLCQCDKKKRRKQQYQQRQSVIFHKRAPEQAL
Cannabinoid receptor 1, sequence (P21554 whole entry): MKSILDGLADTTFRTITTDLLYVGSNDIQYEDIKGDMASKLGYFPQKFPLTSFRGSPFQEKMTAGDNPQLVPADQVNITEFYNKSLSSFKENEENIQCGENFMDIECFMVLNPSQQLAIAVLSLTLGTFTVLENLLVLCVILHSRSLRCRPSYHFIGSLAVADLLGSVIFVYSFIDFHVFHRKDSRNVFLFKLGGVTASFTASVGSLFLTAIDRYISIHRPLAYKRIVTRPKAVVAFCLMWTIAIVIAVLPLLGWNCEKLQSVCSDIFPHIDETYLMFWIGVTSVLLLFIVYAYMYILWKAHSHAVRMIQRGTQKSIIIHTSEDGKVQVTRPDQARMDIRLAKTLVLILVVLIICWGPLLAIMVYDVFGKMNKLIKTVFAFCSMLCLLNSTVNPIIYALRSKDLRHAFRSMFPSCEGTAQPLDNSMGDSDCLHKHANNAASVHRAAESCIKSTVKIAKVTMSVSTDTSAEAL
Voltage-dependent L-type calcium channel subunit alpha-1C, sequence (P22002 whole entry): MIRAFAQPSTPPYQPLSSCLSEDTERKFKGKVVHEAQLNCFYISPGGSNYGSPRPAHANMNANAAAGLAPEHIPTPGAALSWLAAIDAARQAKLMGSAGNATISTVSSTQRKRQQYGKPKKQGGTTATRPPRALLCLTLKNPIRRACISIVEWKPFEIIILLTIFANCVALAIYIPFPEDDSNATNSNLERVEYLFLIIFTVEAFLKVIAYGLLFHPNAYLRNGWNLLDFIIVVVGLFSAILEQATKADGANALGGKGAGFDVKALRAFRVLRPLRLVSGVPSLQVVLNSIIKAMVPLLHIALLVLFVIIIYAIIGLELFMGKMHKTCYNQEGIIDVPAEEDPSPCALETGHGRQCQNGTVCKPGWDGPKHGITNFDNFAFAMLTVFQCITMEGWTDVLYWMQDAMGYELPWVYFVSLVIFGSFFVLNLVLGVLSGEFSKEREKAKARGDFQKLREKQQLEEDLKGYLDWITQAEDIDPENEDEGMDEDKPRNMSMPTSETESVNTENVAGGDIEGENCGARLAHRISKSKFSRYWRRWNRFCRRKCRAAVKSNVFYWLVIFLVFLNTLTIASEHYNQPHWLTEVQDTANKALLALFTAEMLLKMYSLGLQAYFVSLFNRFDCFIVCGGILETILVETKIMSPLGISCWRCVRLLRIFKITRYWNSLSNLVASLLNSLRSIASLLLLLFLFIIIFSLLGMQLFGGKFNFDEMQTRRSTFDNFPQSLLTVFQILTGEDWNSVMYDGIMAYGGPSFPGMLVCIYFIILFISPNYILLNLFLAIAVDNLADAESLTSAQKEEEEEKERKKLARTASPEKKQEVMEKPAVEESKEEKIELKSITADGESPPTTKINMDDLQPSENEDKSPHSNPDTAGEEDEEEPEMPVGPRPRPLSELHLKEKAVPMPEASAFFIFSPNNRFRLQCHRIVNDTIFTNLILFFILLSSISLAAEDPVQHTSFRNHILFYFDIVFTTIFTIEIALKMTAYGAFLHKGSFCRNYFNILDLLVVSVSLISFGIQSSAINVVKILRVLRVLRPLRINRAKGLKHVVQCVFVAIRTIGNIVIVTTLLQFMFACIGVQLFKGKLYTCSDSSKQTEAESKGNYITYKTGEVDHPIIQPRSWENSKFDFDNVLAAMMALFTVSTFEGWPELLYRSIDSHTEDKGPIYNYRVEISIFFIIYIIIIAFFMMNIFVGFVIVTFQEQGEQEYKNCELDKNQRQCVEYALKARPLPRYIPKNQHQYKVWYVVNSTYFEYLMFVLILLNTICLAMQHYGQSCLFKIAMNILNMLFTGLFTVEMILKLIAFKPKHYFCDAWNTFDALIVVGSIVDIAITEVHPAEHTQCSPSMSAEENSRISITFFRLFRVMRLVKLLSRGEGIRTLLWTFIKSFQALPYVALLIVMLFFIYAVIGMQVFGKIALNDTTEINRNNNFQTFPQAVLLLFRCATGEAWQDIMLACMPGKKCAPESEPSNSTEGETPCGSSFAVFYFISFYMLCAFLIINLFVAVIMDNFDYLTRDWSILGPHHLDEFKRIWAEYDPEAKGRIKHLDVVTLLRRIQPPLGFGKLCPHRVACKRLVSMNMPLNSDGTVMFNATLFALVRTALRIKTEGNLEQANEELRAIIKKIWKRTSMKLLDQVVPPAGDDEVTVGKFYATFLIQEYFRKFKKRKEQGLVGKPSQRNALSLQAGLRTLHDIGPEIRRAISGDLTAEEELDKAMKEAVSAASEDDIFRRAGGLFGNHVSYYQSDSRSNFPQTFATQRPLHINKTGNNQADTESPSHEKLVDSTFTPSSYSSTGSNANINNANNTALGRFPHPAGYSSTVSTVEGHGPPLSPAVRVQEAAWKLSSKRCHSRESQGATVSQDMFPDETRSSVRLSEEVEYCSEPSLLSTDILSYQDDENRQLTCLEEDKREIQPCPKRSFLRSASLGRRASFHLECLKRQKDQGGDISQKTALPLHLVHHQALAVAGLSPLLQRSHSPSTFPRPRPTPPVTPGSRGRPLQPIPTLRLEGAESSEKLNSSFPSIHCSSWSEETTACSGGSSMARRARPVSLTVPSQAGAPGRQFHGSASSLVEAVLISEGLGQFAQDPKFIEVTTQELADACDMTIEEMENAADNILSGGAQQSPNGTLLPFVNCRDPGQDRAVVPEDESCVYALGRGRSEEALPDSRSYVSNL
Beta-2 adrenergic receptor, sequence (P07550 whole entry): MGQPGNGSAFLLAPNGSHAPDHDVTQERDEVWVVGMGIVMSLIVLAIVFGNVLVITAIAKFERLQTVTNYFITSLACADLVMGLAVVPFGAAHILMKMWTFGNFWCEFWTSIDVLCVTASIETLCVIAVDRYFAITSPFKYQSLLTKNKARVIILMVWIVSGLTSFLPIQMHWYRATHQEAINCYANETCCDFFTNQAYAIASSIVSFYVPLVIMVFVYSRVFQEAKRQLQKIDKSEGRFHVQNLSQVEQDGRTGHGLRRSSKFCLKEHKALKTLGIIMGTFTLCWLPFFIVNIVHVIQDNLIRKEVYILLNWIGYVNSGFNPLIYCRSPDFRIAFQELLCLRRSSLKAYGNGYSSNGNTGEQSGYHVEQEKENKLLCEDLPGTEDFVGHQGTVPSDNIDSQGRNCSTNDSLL

With `C[C@H]1C[C@H]2[C@@H]3CCC4=CC(=O)C=C[C@]4(C)[C@@]3(Cl)[C@@H](O)C[C@]2(C)[C@@]1(O)C(=O)CO` [BECLOMETHASONE], the AC50 (usually the concentration giving half of the maximal activity seen) at Histamine H3 receptor was more than 10 µM; at Mu-type opioid receptor [1] it was more than 30 µM; in test [2] it was more than 10 µM; in [3], more than 10 µM; in [4], more than 10 µM.
Consider `NS(=O)(=O)c1cc(C2(O)NC(=O)c3ccccc32)ccc1Cl` (centres undefined) [CHLORTHALIDONE], for which the AC50 is more than 30 µM on Mu-type opioid receptor [1]; more than 30 µM on Mu-type opioid receptor [5]; more than 10 µM in test [2]; more than 10 µM on Progesterone receptor; more than 10 µM in test [6]; more than 10 µM in test [3]. This molecule also registered an AC50 in [4] of more than 10 µM.
For `COc1ccc2c(c1)[C@]13CCCC[C@@H]1[C@H](C2)N(C)CC3` [DEXTROMETHORPHAN], the AC50 was more than 10 µM at Histamine H3 receptor; 2.7 µM at Mu-type opioid receptor [1]; more than 30 µM at Mu-type opioid receptor [5]; more than 10 µM in test [2]; more than 10 µM in test [6]; more than 10 µM in [3].
Consider `CCn1cc(C(=O)O)c(=O)c2cc(F)c(N3CCNCC3)nc21` [ENOXACIN], for which the AC50 (at Histamine H3 receptor; on Mu-type opioid receptor [1]; in test [2]; in [6]; in [3]; in [4]) was more than 10 µM throughout.
For `COc1cccc(N(C)C(=S)Oc2ccc3c(c2)CCCC3)n1` [LIRANAFTATE], the concentration at half-maximal activity (AC50) (at Histamine H3 receptor; in test [7]; at Cannabinoid receptor 1; in test [8]; in test [9]; on Mu-type opioid receptor [5]) was more than 30 µM in each case. The AC50 in [10] was more than 30 µM; in test [2], more than 30 µM; at Progesterone receptor, more than 30 µM; in test [6], more than 30 µM; in [3] it was more than 30 µM; in test [11] it was 7.4 µM. In test [4], this molecule gave a half-maximal activity concentration (AC50) of more than 30 µM.
In the case of `C#C[C@]1(O)CC[C@H]2[C@@H]3CCc4cc(OC)ccc4[C@H]3CC[C@@]21C` [MESTRANOL], the AC50 at Mu-type opioid receptor [1] is more than 30 µM; at Mu-type opioid receptor [5], more than 30 µM; in [2] it was more than 10 µM; in test [6], more than 10 µM; in [3], more than 10 µM; in test [4], 10.9 µM.
Consider `O=C(O)c1cc(O)c2c3nc4ccccc4oc-3cc(=O)c2n1` [PIRENOXINE], for which the concentration at half-maximal activity (AC50) is more than 30 µM at Histamine H3 receptor; 2.2 µM in test [7]; more than 30 µM on Cannabinoid receptor 1; 3.8 µM in test [8]; more than 30 µM in test [9]; more than 30 µM at Mu-type opioid receptor [5]. For the same molecule, the concentration at half-maximal activity (AC50) in test [10] was more than 30 µM; in [2] it was 0.72 µM; on Progesterone receptor, more than 30 µM; in [6], more than 30 µM; in test [3], more than 30 µM; in [11] it was more than 30 µM. In [4], the concentration at half-maximal activity (AC50) is more than 30 µM.
Turning to `CNCCCC1c2ccccc2C=Cc2ccccc21` [PROTRIPTYLINE], the concentration at half-maximal activity (AC50) on Mu-type opioid receptor [1] was more than 10 µM; in test [2], more than 10 µM; on Progesterone receptor, more than 10 µM; in test [6], 1.8 µM.
For the molecule `COCCCOc1ccnc(C[S+]([O-])c2nc3ccccc3[nH]2)c1C` (centres undefined) [RABEPRAZOLE], the concentration at half-maximal activity (AC50) on Histamine H3 receptor was more than 10 µM; at Mu-type opioid receptor [1], more than 30 µM; in test [2], more than 10 µM; in [6], more than 10 µM; in [3] it was more than 10 µM; in [4] it was more than 10 µM.
`CC(C)=CCOc1ccc(/C=C/C(=O)c2ccc(OCC=C(C)C)cc2OCC(=O)O)cc1` [SOFALCONE]: the half-maximal activity concentration (AC50) on Histamine H3 receptor was more than 30 µM; in test [7], more than 30 µM; at Cannabinoid receptor 1, 11 µM; in [8], more than 30 µM; in [9], 25 µM; at Mu-type opioid receptor [5], more than 30 µM. Further, the concentration at half-maximal activity (AC50) is more than 30 µM in test [10]; more than 30 µM in test [2]; 9.4 µM at Progesterone receptor; more than 30 µM in [6]; 22 µM in [3]; more than 30 µM in test [11]. The molecule also displayed a concentration at half-maximal activity (AC50) in [4] of 26 µM.
